According to patent US8962655B2, “Composition for treatment of undifferentiated gastric cancer” (Eisai R&D Management Co., Ltd., priority 2007, dated 2015):

Legend:
Assay type in all cases: in vivo
[1] = tested on: human scirrhous gastric cancer cell line (HSC-39); experiment: Combination use with 5-fluorouracil in subcutaneous transplanted (xenograft) models of HSC-39; details: HSC-39 xenograft, nude mice
Experimental: (§1) Human scirrhous gastric cancer cell line HSC-39 (purchased from Immuno-Biological Laboratories Co., Ltd.) was cultured in RPMI1640 (containing 10% FBS) in a 5% carbon dioxide gas incubator at 37° C. to about 80% confluence, and then the cells were collected with trypsin-EDTA. A 5×10^7 cells/mL suspension was prepared with a phosphate buffer, and each 0.1 mL of the resulting cell suspension was subcutaneously transplanted to nude mice at the side of their bodies. Thirteen days after the transplantation, 4-(3-chloro-4-(cyclopropylaminocarbonyl)aminophenoxy)-7-methoxy-6-quinolinecarboxamide (3, 10 or 30 mg/kg, once a day for four weeks, oral) and 5-fluorouracil (Kyowa Hakko) (50 mg/kg, every four days for three times, intravenous) were administered alone or in combination. The major and minor axes of tumors were measured with Digimatic caliper (Mitsutoyo Corporation), and tumor volumes and relative tumor volumes were calculated according to the following formulae: […]

[2] = tested on: human scirrhous gastric cancer cell line (HSC-39); experiment: Combination use with irinotecan hydrochloride in subcutaneous transplanted (xenograft) models of HSC-39; details: once a day for four weeks, oral, HSC-39 xenograft, nude mice
Experimental: Human scirrhous gastric cancer cell line HSC-39 (purchased from Immuno-Biological Laboratories Co,. Ltd.) was cultured in RPMI1640 (containing 10% FBS) in a 5% carbon dioxide gas incubator at 37° C. to about 80% confluence, and then the cells were collected with trypsin-EDTA. A 5×10^7 cells/mL suspension was prepared with a phosphate buffer, and each 0.1 mL of the resulting cell suspension was subcutaneously transplanted to nude mice at the side of their bodies.
Twelve days after the transplantation, 4-(3-chloro-4-(cyclopropylaminocarbonyl)aminophenoxy)-7-methoxy-6-quinolinecarboxamide (3, 10 or 30 mg/kg, once a day for four weeks, oral) and irinotecan hydrochloride (Daiichi Seiyaku) (100 mg/kg, every four days for three times, intravenous) were administered alone or in combination. The major and minor axes of tumors were measured with Digimatic caliper (Mitsutoyo Corporation), and tumor volumes and relative tumor volumes were calculated according to the following formulae: Tumor Volume (TV)=Major axis of tumor (mm)×(Minor axis of tumor)^2 (mm^2)/2 Relative Tumor Volume (RTV)=Tumor volume on measurement day/Tumor volume on the first administration day.

[3] = tested on: human scirrhous gastric cancer cell line (HSC-39); experiment: Combination use with paclitaxel in subcutaneous transplanted (xenograft) models of HSC-39; details: HSC-39 xenograft, nude mice
Experimental: as §1, with “Eleven” for “Thirteen”, “paclitaxel (Calbiochem) (14” for “5-fluorouracil (Kyowa Hakko) (50”, “once a day” for “every four days”, “five days,” for “three times,”

[4] = Compound A 3 mg/kg alone, once a day for four weeks, oral
[5] = Compound A 10 mg/kg alone, once a day for four weeks, oral
[6] = Compound A 30 mg/kg alone, once a day for four weeks, oral

**Q.** For `O=c1[nH]cc(F)c(=O)[nH]1` [5-Fluorouracil, 5-fluorouracil, reference compound], which “Relative tumor volume on Day 29 Average ± standard deviation” value ([1]; 5-fluorouracil 50 mg/kg alone, every four days for three times, intravenous) is on record?
**A.** 5.16 ± 1.37

**Q.** What does the source list for `COc1cc2nccc(Oc3ccc(NC(=O)NC4CC4)c(Cl)c3)c2cc1C(N)=O` [Compound A, 4-(3-chloro-4-(cyclopropylaminocarbonyl)aminophenoxy)-7-methoxy-6-quinolinecarboxamide]?
**A.** Relative tumor volume on Day 29 Average ± standard deviation ([2]; Compound A 3 mg/kg alone): 4.29 ± 1.51; Relative tumor volume on Day 29 Average ± standard deviation ([2]; Compound A 10 mg/kg alone): 2.93 ± 1.55; Relative tumor volume on Day 29 Average ± standard deviation ([2]; Compound A 30 mg/kg alone): 1.76 ± 0.92; Relative tumor volume on Day 29 Average ± standard deviation [1, 4]: 4.16 ± 1.28; Relative tumor volume on Day 29 Average ± standard deviation [1, 5]: 3.73 ± 1.21; Relative tumor volume on Day 29 Average ± standard deviation [1, 6]: 2.72 ± 1.33; Relative tumor volume on Day 29 Average ± standard deviation [3, 4]: 3.79 ± 1.43; Relative tumor volume on Day 29 Average ± standard deviation [3, 5]: 3.27 ± 1.26; Relative tumor volume on Day 29 Average ± standard deviation [3, 6]: 1.69 ± 0.72

**Q.** `CC(=O)O[C@H]1C(=O)[C@@]2(C)[C@H]([C@H](OC(=O)c3ccccc3)[C@]3(O)C[C@H](OC(=O)[C@H](O)[C@@H](NC(=O)c4ccccc4)c4ccccc4)C(C)=C1C3(C)C)[C@]1(OC(C)=O)CO[C@@H]1C[C@@H]2O` [Paclitaxel, paclitaxel, reference compound] was tested. Which “Relative tumor volume on Day 29 Average ± standard deviation” value ([3]; paclitaxel 14 mg/kg alone, once a day for five days, intravenous) did it give?
**A.** 4.26 ± 2.06
